Experimental data as given in patent US9549927B2, “Heteroaryl compounds and uses thereof” (Celgene Avilomics Research, Inc., priority 2012, dated 2017).

Biological target: T1, full-length recombinant human Btk protein (Homo sapiens, UniProt Q06187)
T1 construct: The full-length recombinant human Btk protein; purchased Invitrogen (Carlsbad, Calif.) Lot #619547Q (catalogue number not given)
Test: Covalent bonding assay, intact protein MALDI mass spectrometry
Format: binding
Conditions: 60 minutes incubation, 10-fold excess of compound to protein, room temperature
Protocol: The following example describes testing certain compounds to determine whether they covalently bind to BTK. The full-length recombinant human Btk protein (Lot #619547Q; 0.35 mg/mL) was obtained from Invitrogen (Carlsbad, Calif.). Btk protein was diluted 2:3 in phosphate-buffered saline and stock concentration (10 mM) of compound was diluted 1:115 in 50% DMSO.
For all compounds, 1 μL of diluted compound was added to 5 μL of diluted protein. These mixtures were then incubated for 60 minutes at a 10-fold excess of compound to protein under room temperature (˜24° C.) conditions.
At the end of the incubation, 5 μL aliquots of the samples were diluted with 15 μL of 0.2% TFA prior to micro C4 ZipTipping® directly onto the MALDI target plate using sinapinic acid as the desorption matrix (10 mg/mL in 0.2% TFA:Acetonitrile 50:50). Samples were immediately analyzed on an ABSciex 4800 MALDI TOF-TOF mass spectrometer.
For intact protein mass measurement, the mass spectrometer was set in linear mode using a pulsed extraction setting of 81,500. Bovine serum albumin (BSA; Sigma, St Louis, Mo.) was used as the standard to calibrate the instrument. These values correspond to the percentage of total protein covalently modified by the tested compound after one hour incubation.

T1 sequence (Q06187 whole entry): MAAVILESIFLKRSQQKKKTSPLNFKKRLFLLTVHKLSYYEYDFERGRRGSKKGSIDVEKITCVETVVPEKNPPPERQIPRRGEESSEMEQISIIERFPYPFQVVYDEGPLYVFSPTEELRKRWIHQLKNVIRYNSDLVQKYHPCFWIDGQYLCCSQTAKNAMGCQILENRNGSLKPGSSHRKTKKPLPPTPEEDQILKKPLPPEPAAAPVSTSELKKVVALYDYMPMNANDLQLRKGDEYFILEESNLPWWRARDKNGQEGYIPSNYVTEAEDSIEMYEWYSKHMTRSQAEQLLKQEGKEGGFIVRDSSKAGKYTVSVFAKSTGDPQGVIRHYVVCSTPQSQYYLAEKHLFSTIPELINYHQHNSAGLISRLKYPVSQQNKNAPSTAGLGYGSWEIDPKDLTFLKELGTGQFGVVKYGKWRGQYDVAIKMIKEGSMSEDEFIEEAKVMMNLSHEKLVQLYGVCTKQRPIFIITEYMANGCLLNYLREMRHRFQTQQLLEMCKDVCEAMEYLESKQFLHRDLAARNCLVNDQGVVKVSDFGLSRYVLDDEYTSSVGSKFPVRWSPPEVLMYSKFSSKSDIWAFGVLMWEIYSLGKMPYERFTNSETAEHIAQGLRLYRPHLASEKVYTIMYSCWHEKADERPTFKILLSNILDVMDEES

| Structure (SMILES) | MS % modification |
| --- | --- |
| C=CC(=O)Nc1cccc(Nc2nc(Nc3ccc(O)cc3)ncc2F)c1 [Compound I-3, N-(3-((5-fluoro-2-((4-hydroxyphenyl)amino)pyrimidin-4-yl)amino)phenyl)acrylamide] | A (>70% modification) |
| O=C(Nc1cccc(Nc2nc(Nc3ccc(OCCO)cc3)ncc2F)c1)C(O)CO (stereo not drawn) [Compound I-5, N-(3-((5-fluoro-2-((4-(2-hydroxyethoxyl)phenyl)amino)pyrimidin-4-yl)amino)phenyl)-2,3-dihydroxypropanamide] | C (<30% modification) |
| O=C(Nc1cccc(Nc2nc(Nc3ccc(O)cc3)ncc2F)c1)C(O)CO (stereo not drawn) [Compound I-6, N-(3-((5-fluoro-2-((4-hydroxyphenyl)amino)pyrimidin-4-yl)amino)phenyl)-2,3-dihydroxypropanamide] | C (<30% modification) |

Results, then the compound that gave them:

| MS % modification | Structure (SMILES) |
| --- | --- |
| B (31-69% modification) | C=CC(=O)Nc1cccc(Nc2nc(Nc3ccc(OCCO)cc3)ncc2F)c1 [Compound I-1, N-(3-((5-fluoro-2-((4-(2-hydroxyethoxyl)phenyl)amino)pyrimidin-4-yl)amino)phenyl)acrylamide] |
| C (<30% modification) | COCCOc1ccc(Nc2ncc(F)c(Nc3cccc(NC(=O)C(O)CO)c3)n2)cc1 (stereo not drawn) [Compound I-4, N-(3-((5-fluoro-2-((4-(2-methoxyethoxyl)phenyl)amino)pyrimidin-4-yl)amino)phenyl)-2,3-dihydroxypropanamide] |
| A (>70% modification) | COCCOc1ccc(Nc2ncc(F)c(Nc3cccc(NC(=O)C4CO4)c3)n2)cc1 (stereo not drawn) [Compound I-19, N-(3-((5-fluoro-2-((4-(2-methoxyethoxyl)phenyl)amino)pyrimidin-4-yl)amino)phenyl)oxirane-2-carboxamide] |
